Activity calls are given as the source filed them. The rule behind the calls is not given here. A value given as a limit tells only on which side of the number the result lay.

In assay [1] the test system is KB. Description: Cytotoxicity against human KB cells after 48 hrs by MTT assay. In kind it is functional, cell-based.
For assay [2], the system named is HCT-116. Description: cells. As to conditions: Homo sapiens, HCT-116, 48 h.
Description: Cytotoxicity against human HCT116 cells after 48 hrs by MTT assay
Assay [3] has as its system A549. Description: cells. As to conditions: Homo sapiens, A549, 48 h.
Description: Cytotoxicity against human A549 cells after 48 hrs by MTT assay
The test system of assay [4] is HeLa. Description: cells. As to conditions: Homo sapiens, 48 h.
Description: Cytotoxicity against human HeLa cells after 48 hrs by MTT assay
Assay [5] relates to NCI-H460. Briefly: Cytotoxicity against human NCI-H460 cells after 48 hrs by MTT assay. In kind it is functional, cell-based. As to conditions: NCI-H460, 48 h. A general note: Formazan colour is commonly taken as a measure of viable cells.
Assay [6] deals with HepG2. Description: cells. As to conditions: Homo sapiens, HepG2, 48 h.
Description: Cytotoxicity against human HepG2 cells after 48 hrs by MTT assay
The subject of assay [7] is HUVEC. Description: Cytotoxicity against HUVEC after 48 hrs by MTT assay. In kind it is cell-based. As to conditions: Homo sapiens.
In assay [8] the test system is MGC-803. Description: Cytotoxicity against human MGC803 cells after 48 hrs by MTT assay. In kind it is functional, cell-based. As to conditions: MGC-803, 48 h.
In assay [9] the test system is CNE. Description: Cytotoxicity against human CNE cells after 48 hrs by MTT assay. In kind it is functional, cell-based.
The test system of assay [10] is NCI-H460. Briefly: Induction of apoptosis in human NCI-H460 cells assessed as early apoptotic cells at 5 to 20 uM after 24 hrs by Annexin V/propidium iodide staining-based flow cytometry relative to control. In kind it is functional, cell-based.

A word on the IC50: it is the concentration needed to halve the response being measured. A low value points to greater potency in that assay. For the compound `CCOP(=O)(OCC)C(NC(=O)C(C)Oc1ccc2c(c1O)C(=O)c1ccccc1C2=O)c1ccc2ccccc2c1` (stereo not given), the IC50 in [1] came out at 1.21 µM; in assay [2] it was 23 µM; in [3], 25.2 µM; in assay [4], 23.6 µM; in assay [5], 14.1 µM; in assay [6], 38.9 µM. In addition, the IC50 in assay [7] turned out to be 38.9 µM; in [8], 5.6 µM; in assay [9] it was 49.4 µM.
With `CCOP(=O)(OCC)C(NC(=O)C(C)Oc1ccc2c(c1O)C(=O)c1ccccc1C2=O)c1ccc(OC)cc1` (stereo not given), the concentration for half-maximal inhibition (IC50) in assay [1] was 1 µM; in assay [2] it was 13.7 µM; in [3], 33.7 µM; in assay [4], 14.7 µM; in assay [5], 14.3 µM; in assay [6] it was more than 50 µM. The results for the IC50 in assay [7], in [8] and in assay [9] were more than 50 µM, 22.5 µM and more than 50 µM, respectively.
With `O=C1c2ccccc2C(=O)c2c1ccc(O)c2O` [ATHRAQUINONES A], the concentration for half-maximal inhibition (IC50) was 15.7 µM in assay [1]; more than 50 µM in assay [2]; more than 50 µM in assay [3]; more than 100 µM in assay [4]; more than 50 µM in assay [5]; more than 50 µM in [6]. Further, the IC50 in assay [7] is more than 50 µM; in [8] it was 39.4 µM; in assay [9], more than 100 µM.
Take `CCOP(=O)(OCC)C(NC(=O)C(C)Oc1ccc2c(c1O)C(=O)c1ccccc1C2=O)c1cccc(OC)c1` (stereo not given): the IC50 was 5.78 µM in assay [1]; 17 µM in assay [2]; 36 µM in assay [3]; more than 50 µM in assay [4]; 14.9 µM in assay [5]; more than 50 µM in assay [6]. The IC50 in [7] is more than 50 µM; in assay [8], 27.6 µM; in assay [9] it was more than 50 µM.
As to `CCOP(=O)(OCC)C(NC(=O)C(C)Oc1ccc2c(c1O)C(=O)c1ccccc1C2=O)c1cccc(C)c1` (stereo not given), the IC50 in [1] is 9.68 µM; in assay [2] it was 36.2 µM; in assay [3] it was 25.6 µM; in [4], 17.4 µM; in [5], 9.31 µM; in assay [6], more than 50 µM. Besides, the concentration for half-maximal inhibition (IC50) in assay [7] is more than 50 µM; in assay [8], 8.02 µM; in assay [9], 30.5 µM. Also, in assay [10], the outcome was Active.
Consider `CCOP(=O)(OCC)C(NC(=O)C(C)Oc1ccc2c(c1O)C(=O)c1ccccc1C2=O)c1cccc(F)c1` (stereo not given), for which the IC50 in assay [1] was 9.12 µM; in assay [2] it was 47.1 µM; in assay [3], 35.1 µM; in assay [4], more than 50 µM; in assay [5], 25.9 µM; in [6], more than 50 µM. Further, the IC50 is more than 50 µM in assay [7], 28.9 µM in assay [8] and more than 50 µM in assay [9].
`CCOP(=O)(OCC)C(NC(=O)C(C)Oc1ccc2c(c1O)C(=O)c1ccccc1C2=O)c1ccc(C)cc1` (stereo not given): the IC50 was 0.99 µM in [1]; 37 µM in assay [2]; 38 µM in assay [3]; more than 50 µM in assay [4]; 28.9 µM in assay [5]; more than 50 µM in assay [6]. For the same compound, the IC50 is more than 50 µM in assay [7], 27.9 µM in assay [8] and more than 50 µM in assay [9].
As to `CCOP(=O)(OCC)C(NC(=O)C(C)Oc1ccc2c(c1O)C(=O)c1ccccc1C2=O)c1ccccc1Br` (stereo not given), the IC50 in assay [1] came to 0.13 µM; in assay [2], 7.31 µM; in [3], 11.4 µM; in assay [4], 41.6 µM; in assay [5], 4.11 µM; in assay [6], 24.1 µM. The IC50 in assay [7] was found to be 24.1 µM; in assay [8] it was 15.1 µM; in assay [9] it was 47.3 µM. For the same compound, the result in [10] was Active.
Turning to `CCOP(=O)(OCC)C(NC(=O)C(C)Oc1ccc2c(c1O)C(=O)c1ccccc1C2=O)c1ccccc1` (stereo not given), the half-maximal inhibitory concentration (IC50) in [1] is 0.65 µM; in assay [2], 8.07 µM; in assay [3], 34.6 µM; in assay [4], more than 50 µM; in [5] it was 8.11 µM; in assay [6] it was more than 50 µM. For the same compound, the IC50 in [7] is more than 50 µM; in assay [8] it was 6.66 µM; in [9], more than 50 µM. Moreover, in assay [10], the result was Active.
With `CCOP(=O)(OCC)C(NC(=O)C(C)Oc1ccc2c(c1O)C(=O)c1ccccc1C2=O)c1cccc(Cl)c1` (stereo not given), the IC50 came to 0.22 µM in [1]; 36.3 µM in assay [2]; 18.7 µM in [3]; 12.9 µM in [4]; 9.1 µM in assay [5]; 70.8 µM in assay [6]. Besides, the IC50 in assay [7] is 70.8 µM; in [8], 29 µM; in [9], more than 50 µM.
Regarding `CCOP(=O)(OCC)C(NC(=O)C(C)Oc1ccc2c(c1O)C(=O)c1ccccc1C2=O)c1ccc(Br)cc1` (stereo not given), the IC50 in assay [1] is 0.26 µM; in assay [2] it was 12.4 µM; in [3] it was 30.3 µM; in [4] it was 10.9 µM; in [5] it was 7.83 µM; in assay [6] it was 22.2 µM. The IC50 in [7] was found to be 22.2 µM; in [8], 18.5 µM; in assay [9], 22.2 µM.
Take `CCOP(=O)(OCC)C(NC(=O)COc1ccc2c(c1O)C(=O)c1ccccc1C2=O)c1ccccc1` (stereo not given): the IC50 worked out at 6.7 µM in assay [1]; 17.4 µM in [2]; 12.1 µM in assay [3]; 18.5 µM in assay [4]; 11.9 µM in [5]; 41.4 µM in [6]. Also, the IC50 is more than 50 µM in assay [7] and 13 µM in [8].
In the case of `O=c1[nH]cc(F)c(=O)[nH]1` [FLUOROURACIL], the IC50 in assay [1] is 1.23 µM; in assay [2] it was 10.1 µM; in assay [4], 23.3 µM; in [5], 45.1 µM; in [6] it was 38.3 µM; in [7] it was 24.1 µM. For the same compound, the half-maximal inhibitory concentration (IC50) in assay [8] came out at 46.9 µM; in assay [9], 45.1 µM.
`CCOP(=O)(OCC)C(NC(=O)C(C)Oc1ccc2c(c1O)C(=O)c1ccccc1C2=O)c1ccc(F)cc1` (stereo not given): the IC50 was 0.87 µM in assay [1]; 17.9 µM in assay [2]; 19.4 µM in [3]; 34.1 µM in [4]; 8.92 µM in assay [5]; 25.3 µM in assay [6]. Moreover, the 50% inhibitory concentration (IC50) is 25.3 µM in assay [7], 22.9 µM in [8] and more than 50 µM in assay [9].
Turning to `CCOP(=O)(OCC)C(NC(=O)C(C)Oc1ccc2c(c1O)C(=O)c1ccccc1C2=O)c1ccc(Cl)cc1` (stereo not given), the IC50 was 0.2 µM in assay [1]; 15.6 µM in assay [2]; 10.7 µM in [3]; 12.7 µM in [4]; 5.11 µM in assay [5]; 31.8 µM in [6]. The IC50 in assay [7] is 31.8 µM; in [8], 25.1 µM; in assay [9] it was 48.7 µM.
Turning to `CCOP(=O)(OCC)C(NC(=O)C(C)Oc1ccc2c(c1O)C(=O)c1ccccc1C2=O)c1cccc(Br)c1` (stereo not given), the IC50 in assay [1] was 2.29 µM; in [2], 15.7 µM; in [3], 32.8 µM; in [4], 11 µM; in assay [5], 10.7 µM; in [6], 23.6 µM. The IC50 in [7] is 23.6 µM; in [8] it was 27.5 µM; in assay [9], more than 50 µM.
Regarding `CCOP(=O)(OCC)C(NC(=O)C(C)Oc1ccc2c(c1O)C(=O)c1ccccc1C2=O)c1ccccc1Cl` (stereo not given), the half-maximal inhibitory concentration (IC50) in assay [1] was 0.14 µM; in assay [2], 14.8 µM; in assay [3], 10.1 µM; in assay [4] it was 20.9 µM; in assay [5], 3.8 µM; in [6], 19.9 µM. The values for the IC50 in assay [7], in assay [8] and in [9] were 19.9 µM, 11 µM and 43.1 µM, respectively. In addition, the outcome in [10] was Active.
